Reference: patent US11400038B2, “Synergistic antioxidant compositions” (RODAN & FIELDS, LLC, priority 2019, dated 2022)

Experiments:
Adult human fibroblasts = test: Phototoxicity (PHTX): cell viability pre- and post-UVA irradiation by MTT assay (Test Method B); assay type: cell-based; details: for cell metabolism versus solvent control, in words: UV-irradiation assay, individual antioxidants; for PHTX Results: phototoxicity: individual antioxidant
Experimental: The cell viability was measured by determining the cells metabolic activity with a MTT assay according to Test Method B, the results are presented in Table 5. An MTT assay is a colorimetric assay for assessing cell metabolic activity.
Adult human fibroblasts were grown to exponential stage in a 96-well plate in DMEM and 10% FBS in humidified atmosphere, 37° C. in 5% CO2. Prior to irradiation, half of cell culture medium was replaced with PBS, treated with 0.1% test material (diluted in double distilled water), and incubated for an additional 1 hour 45 minutes. Following incubation, half of the plate was irradiated with UVA lamp UVA-28T at 5 mW/cm2 for 12 minutes, and the other half remained covered with aluminum foil. Following irradiation, PBS with test materials was replaced by fresh cell culture medium and plate was incubated for an additional 24 hours. Cell viability was then analyzed via MTT assay to quantify metabolic activity.

[1] = tested on: UVA-induced Reactive Oxygen Species in Human Dermal Fibroblasts; test: DCFH reactive oxygen species quantification in UVA-irradiated fibroblasts (Test Method C); assay type: cell-based; details: individual antioxidant, + pro-oxidant
Experimental: Compositions of Ex1-Ex8 have been tested for reactive oxygen species quantification in UVA-irradiated human dermal fibroblasts. The quantification result is expressed as a percentage of the water control and determined by the Test Method C and resented in Table 6.
Adult human fibroblasts were grown in a 96 well plate in DMEM+5% FBS. At exponential growth stage, medium was replaced with PBS and cells were loaded with 10 μM DCFH-DA (2′-7′-Dichlorofluorescin diacetate). Cells were incubated for 15 minutes at 37° C., rinsed, and incubated with test materials at 1 mg/ml (0.1% w/w) for an additional 20 minutes. Following incubation, plate was irradiated at 5 mW/cm2 for 10 minutes. Measurements of DCF-originated fluorescence were taken before and after irradiation as, in the presence of free radicals, DCFH is oxidized to highly fluorescent DCF, which can be detected in living cells at ex/em 488/530 nm. Total insoluble proteins were quantified to determine effect of test materials on cell number and to standardize ROS signal to cell number using the following equation: [ΔROS signal (t10 min−t0)]\[cell number (background−corrected)]. Water was used as a negative control.

Row | Structure (SMILES) | cell metabolism versus solvent control, in words (Adult human fibroblasts) | PHTX Results: phototoxicity (Adult human fibroblasts) | DCFH Results (intracellular antioxidant): radical activity [1]
1 | O=C(/C=C/c1ccc(O)c(O)c1)O[C@H](Cc1ccc(O)c(O)c1)C(=O)O [Rosmarinic acid, (2R)-3-(3,4-dihydroxyphenyl)-2-{[(2E)-3-(3,4-dihydroxyphenyl)prop-2-enoyl]oxy}propanoic acid] | lower cell metabolism than solvent control | not phototoxic | −52% radical
2 | C[C@@H]1O[C@@H](OC[C@H]2O[C@@H](Oc3c(-c4ccc(O)c(O)c4)oc4cc(O)cc(O)c4c3=O)[C@H](O)[C@@H](O)[C@@H]2O)[C@H](O)[C@H](O)[C@H]1O [Rutin, 2-(3,4-dihydroxyphenyl)-5,7-dihydroxy-3-[α-L-rhamnopyranosyl-(1→6)-β-D-glucopyranosyloxy]-4H-chromen-4-one] | lower cell metabolism than solvent control | not phototoxic | No Activity
